The text below walks through data of patent US9688653B2, “Ethoxyphenyl thienyl compounds and methods for the treatment of bacterial infections” (Duke University, priority 2013, dated 2017).

Several values for one entry are separate records, joined by “and”; a condition that tells them apart may be missing. Identical values can stand only once. Like-named read-outs stand apart in the source and are kept apart here.

One series relates to K1 antigen of UTI89. In words: K1 antigen whole-cell dot blot with anti-K1 serum. It is filed as cell-based, Escherichia coli. Conditions: 100 μM. As to the method: K1 antigen dot blot. K1 antigen was detected by dot blot assays of culture extracts probed with anti-K1 H46 serum. The assay was performed as previously described. The experiment was repeated twice with similar results, and a representative dot blot is shown.

The nature of series [1]: Plasma protein binding, mouse. It is filed as in vitro ADME.
For a further series, the system named is UPEC. In words: Bacterial growth and viability without phage. The class given is cell-based, Escherichia coli. Here is the method:
Assay Set-up: This secondary assay was conducted in the 96 well plate format. […] Compounds were added to plates in a concentration dependent manner in the range of 100-0.39 μM, followed by addition of 100 μL of bacterial culture. Each concentration was tested in quadruplicate. 1% DMSO (final well concentration) was included. The plates were tape sealed and shaken vigorously for 1.5 hr. An initial OD600 reading at the time of infection was measured to identify compounds that cause growth retardation or bacterial killing in the absence of phage. Next, K1F phage (5 μL) was added to all of the test wells. The plates were resealed and shaken vigorously at 37° C., and measurements of OD600 for phage-mediated lysis were taken after 3 hr.
Assay Description: T7 phage-mediated lysis assay: This assay determined if the mechanism of action of the compound is inhibition of phage infectivity or replication. The T7 phage has a nearly identical genome to K1F, without encoding an endosialidase. Its cycle of replication is similar to that of K1F as well. However, T7 entry into E. coli is inhibited by K capsules. This secondary assay was conducted in the 96 well plate format. […] An initial OD600 reading was measured to identify compounds that cause growth retardation or bacterial killing in the absence of phage. […]

Series [2] can be described thus: Solubility in PBS and in assay media. The class given is physicochemical. Here is the method: Solubility was measured in phosphate buffered saline (PBS) at room temperature (23° C.). PBS by definition is 137 mM NaCl, 2.7 mM KCl, 10 mM sodium phosphate dibasic, 2 mM potassium phosphate monobasic and a pH of 7.4 (34). […] Solubility was also assessed in primary assay media (Luria-Bertani Broth). […] The solubility in PBS buffer is good, and only slightly less than in assay media, and, in any case, the solubility for the probe is well above its activity in the K1 and T7 assays.

The target of series [3] is panel of 68 receptors (Rattus norvegicus, UniProt P15823). The conditions noted are these: Adrenergic α1B, rat, 10 μM.
For series [4], the target named is panel of 68 receptors (Homo sapiens, UniProt Q9Y271). Conditions: Leukotriene, Cysteinyl CysLT1, hum, 10 μM.
panel of 68 receptors (Homo sapiens, UniProt Q9Y271), sequence (Q9Y271 whole entry): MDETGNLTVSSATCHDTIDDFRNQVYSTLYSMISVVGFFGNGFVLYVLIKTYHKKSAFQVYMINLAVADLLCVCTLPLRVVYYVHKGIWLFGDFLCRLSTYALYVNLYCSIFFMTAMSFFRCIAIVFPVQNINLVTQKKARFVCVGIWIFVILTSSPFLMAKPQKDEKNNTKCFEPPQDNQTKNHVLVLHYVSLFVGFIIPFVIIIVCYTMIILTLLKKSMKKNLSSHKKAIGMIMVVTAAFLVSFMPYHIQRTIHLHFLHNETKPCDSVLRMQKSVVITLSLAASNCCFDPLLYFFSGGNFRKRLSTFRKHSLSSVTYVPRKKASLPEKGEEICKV
The target in series [5] is panel of 68 receptors (Homo sapiens, UniProt P25021). The conditions noted are these: Histamine H2, hum, 10 μM.
panel of 68 receptors (Homo sapiens, UniProt P25021), sequence (P25021 whole entry): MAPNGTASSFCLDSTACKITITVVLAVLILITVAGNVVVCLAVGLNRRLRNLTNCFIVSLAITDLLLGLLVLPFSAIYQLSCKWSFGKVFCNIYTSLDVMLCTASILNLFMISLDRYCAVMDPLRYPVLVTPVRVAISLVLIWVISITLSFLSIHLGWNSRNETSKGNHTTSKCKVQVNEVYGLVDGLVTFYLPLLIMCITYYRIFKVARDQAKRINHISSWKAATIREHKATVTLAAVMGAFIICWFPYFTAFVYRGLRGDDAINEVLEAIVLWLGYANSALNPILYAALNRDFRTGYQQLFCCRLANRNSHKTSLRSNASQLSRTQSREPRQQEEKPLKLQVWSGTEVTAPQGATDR
Series [6] has as its target panel of 68 receptors (Homo sapiens, UniProt P0DMS8). Conditions: Adenosine A3, hum, 10 μM.
For series [7], the target named is panel of 68 receptors (Homo sapiens, UniProt P25100). Conditions: Adrenergic α1D, hum, 10 μM.
panel of 68 receptors (Homo sapiens, UniProt P25100), sequence (P25100 whole entry): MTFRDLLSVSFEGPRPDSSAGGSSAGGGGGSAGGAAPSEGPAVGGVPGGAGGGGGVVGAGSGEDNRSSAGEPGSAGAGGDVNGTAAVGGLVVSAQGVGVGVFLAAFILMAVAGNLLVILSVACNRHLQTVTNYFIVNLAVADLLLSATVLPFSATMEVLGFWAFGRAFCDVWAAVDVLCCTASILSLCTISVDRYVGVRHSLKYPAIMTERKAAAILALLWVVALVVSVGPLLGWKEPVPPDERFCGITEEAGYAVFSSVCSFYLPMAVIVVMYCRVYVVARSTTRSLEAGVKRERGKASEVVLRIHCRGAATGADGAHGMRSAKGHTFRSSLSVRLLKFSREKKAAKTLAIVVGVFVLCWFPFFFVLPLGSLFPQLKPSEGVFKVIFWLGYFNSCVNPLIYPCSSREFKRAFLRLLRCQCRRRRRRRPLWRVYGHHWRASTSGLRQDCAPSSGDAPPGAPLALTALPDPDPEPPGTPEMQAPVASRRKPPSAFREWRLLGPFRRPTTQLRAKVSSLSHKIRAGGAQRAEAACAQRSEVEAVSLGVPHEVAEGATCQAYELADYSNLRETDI
Series [8] deals with panel of 68 receptors (Homo sapiens, UniProt P25929). The conditions noted are these: Neuropeptide Y Y1, hum, 10 μM.
panel of 68 receptors (Homo sapiens, UniProt P25929), sequence (P25929 whole entry): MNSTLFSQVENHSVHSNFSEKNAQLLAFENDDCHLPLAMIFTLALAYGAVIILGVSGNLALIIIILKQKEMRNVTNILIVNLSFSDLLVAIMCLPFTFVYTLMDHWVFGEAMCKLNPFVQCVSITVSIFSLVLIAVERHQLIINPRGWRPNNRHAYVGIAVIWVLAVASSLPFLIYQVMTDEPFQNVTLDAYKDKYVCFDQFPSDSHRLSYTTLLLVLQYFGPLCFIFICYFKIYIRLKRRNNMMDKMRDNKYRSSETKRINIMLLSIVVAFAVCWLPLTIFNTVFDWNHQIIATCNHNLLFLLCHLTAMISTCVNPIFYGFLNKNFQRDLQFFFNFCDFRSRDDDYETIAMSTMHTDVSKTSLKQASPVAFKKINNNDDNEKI
Series [9] has as its target panel of 68 receptors (Homo sapiens, UniProt P46663). Conditions: Bradykinin B1, hum, 10 μM.
Series [10] addresses panel of 68 receptors (Homo sapiens, UniProt P08913). Conditions: Adrenergic α2A, hum, 10 μM.
Series [11] addresses panel of 68 receptors (Homo sapiens, UniProt P08908). The conditions noted are these: Serotonin (5-Hydroxytryptamine) 5-HT1A, hum, 10 μM.
Series [12] concerns the target panel of 68 receptors (Homo sapiens, UniProt P08588). The conditions noted are these: Adrenergic β1, hum, 10 μM.
The target of series [13] is panel of 68 receptors (Rattus norvegicus, UniProt P15207). The conditions noted are these: Androgen (Testosterone) AR, rat, 10 μM.
Series [14] has as its target panel of 68 receptors (Homo sapiens, UniProt P25105). Conditions: Platelet Activating Factor (PAF), hum, 10 μM.
For series [15], the target named is panel of 68 receptors (Homo sapiens, UniProt P25101). Conditions: Endothelin ETA, hum, 10 μM.
panel of 68 receptors (Homo sapiens, UniProt P25101), sequence (P25101 21-427): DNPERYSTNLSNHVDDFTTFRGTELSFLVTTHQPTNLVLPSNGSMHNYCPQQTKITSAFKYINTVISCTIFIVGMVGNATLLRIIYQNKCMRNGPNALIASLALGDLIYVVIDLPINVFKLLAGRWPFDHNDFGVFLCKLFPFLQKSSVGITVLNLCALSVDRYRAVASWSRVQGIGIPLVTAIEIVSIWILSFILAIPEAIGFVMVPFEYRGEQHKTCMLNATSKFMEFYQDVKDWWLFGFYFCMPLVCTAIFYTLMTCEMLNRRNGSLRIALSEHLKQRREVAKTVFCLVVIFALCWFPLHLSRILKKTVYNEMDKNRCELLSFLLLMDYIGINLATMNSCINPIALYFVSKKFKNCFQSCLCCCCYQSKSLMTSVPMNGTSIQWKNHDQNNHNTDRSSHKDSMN
The target in series [16] is panel of 68 receptors (Homo sapiens, UniProt P04150). The conditions noted are these: Glucocorticoid, hum, 10 μM.
panel of 68 receptors (Homo sapiens, UniProt P04150), sequence (P04150 whole entry): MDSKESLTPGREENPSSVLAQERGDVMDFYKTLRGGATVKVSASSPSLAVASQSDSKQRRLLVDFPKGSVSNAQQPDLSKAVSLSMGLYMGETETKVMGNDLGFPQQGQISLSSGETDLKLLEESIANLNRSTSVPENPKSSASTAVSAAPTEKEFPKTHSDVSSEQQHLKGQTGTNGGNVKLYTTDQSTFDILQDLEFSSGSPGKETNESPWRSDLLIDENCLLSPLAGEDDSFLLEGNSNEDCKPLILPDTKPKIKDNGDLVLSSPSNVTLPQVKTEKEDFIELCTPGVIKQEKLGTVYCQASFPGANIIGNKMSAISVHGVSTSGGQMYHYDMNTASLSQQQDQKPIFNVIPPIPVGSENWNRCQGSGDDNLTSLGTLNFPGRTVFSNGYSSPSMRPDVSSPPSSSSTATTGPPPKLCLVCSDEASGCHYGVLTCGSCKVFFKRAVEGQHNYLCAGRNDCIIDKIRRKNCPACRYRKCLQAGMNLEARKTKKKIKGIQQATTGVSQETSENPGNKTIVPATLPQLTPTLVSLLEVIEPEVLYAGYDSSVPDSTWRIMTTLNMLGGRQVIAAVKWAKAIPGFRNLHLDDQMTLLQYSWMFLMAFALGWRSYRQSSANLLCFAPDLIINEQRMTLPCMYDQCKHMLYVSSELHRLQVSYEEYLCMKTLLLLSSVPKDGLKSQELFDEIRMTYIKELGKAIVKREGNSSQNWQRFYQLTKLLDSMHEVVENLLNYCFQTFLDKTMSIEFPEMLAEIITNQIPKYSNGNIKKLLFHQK
Series [17] addresses panel of 68 receptors (Homo sapiens, UniProt Q9Y5N1). The conditions noted are these: Histamine H3, hum, 10 μM.
Series [18] addresses panel of 68 receptors (Homo sapiens, UniProt Q12809). The conditions noted are these: Potassium Channel hERG, hum, 10 μM.
Series [19] deals with panel of 68 receptors (Homo sapiens, UniProt Q9UBS5). The conditions noted are these: GABAB1A, hum, 10 μM.
For series [20], the target named is panel of 68 receptors (Homo sapiens, UniProt P21554). The conditions noted are these: Cannabinoid CB1, hum, 10 μM.

panel of 68 receptors (Homo sapiens, UniProt P08913), sequence (P08913 whole entry): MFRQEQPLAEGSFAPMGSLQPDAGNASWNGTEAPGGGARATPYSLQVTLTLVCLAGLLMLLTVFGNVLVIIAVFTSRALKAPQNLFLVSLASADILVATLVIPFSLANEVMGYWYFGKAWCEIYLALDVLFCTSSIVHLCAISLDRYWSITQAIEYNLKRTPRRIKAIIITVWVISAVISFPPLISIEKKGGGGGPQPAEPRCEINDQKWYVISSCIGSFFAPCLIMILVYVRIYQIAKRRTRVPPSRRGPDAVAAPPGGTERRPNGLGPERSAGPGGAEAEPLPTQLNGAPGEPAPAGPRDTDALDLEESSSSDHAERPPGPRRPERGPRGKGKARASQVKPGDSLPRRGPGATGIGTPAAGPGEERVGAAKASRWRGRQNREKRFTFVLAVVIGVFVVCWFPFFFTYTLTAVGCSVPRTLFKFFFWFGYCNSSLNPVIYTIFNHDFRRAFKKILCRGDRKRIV
panel of 68 receptors (Homo sapiens, UniProt P08588), sequence (P08588 whole entry): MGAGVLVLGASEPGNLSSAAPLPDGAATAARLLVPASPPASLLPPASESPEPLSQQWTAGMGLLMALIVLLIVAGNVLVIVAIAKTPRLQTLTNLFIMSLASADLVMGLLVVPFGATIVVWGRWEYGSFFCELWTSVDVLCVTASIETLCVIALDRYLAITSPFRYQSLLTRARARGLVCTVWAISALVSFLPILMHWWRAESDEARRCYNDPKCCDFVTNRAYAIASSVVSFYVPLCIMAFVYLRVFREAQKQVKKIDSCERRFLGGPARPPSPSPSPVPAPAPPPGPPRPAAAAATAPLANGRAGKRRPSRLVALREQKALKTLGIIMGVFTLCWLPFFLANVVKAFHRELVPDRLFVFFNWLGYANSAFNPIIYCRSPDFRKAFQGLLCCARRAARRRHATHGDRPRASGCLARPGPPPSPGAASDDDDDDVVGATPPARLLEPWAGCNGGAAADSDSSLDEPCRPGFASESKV
panel of 68 receptors (Homo sapiens, UniProt P25105), sequence (P25105 whole entry): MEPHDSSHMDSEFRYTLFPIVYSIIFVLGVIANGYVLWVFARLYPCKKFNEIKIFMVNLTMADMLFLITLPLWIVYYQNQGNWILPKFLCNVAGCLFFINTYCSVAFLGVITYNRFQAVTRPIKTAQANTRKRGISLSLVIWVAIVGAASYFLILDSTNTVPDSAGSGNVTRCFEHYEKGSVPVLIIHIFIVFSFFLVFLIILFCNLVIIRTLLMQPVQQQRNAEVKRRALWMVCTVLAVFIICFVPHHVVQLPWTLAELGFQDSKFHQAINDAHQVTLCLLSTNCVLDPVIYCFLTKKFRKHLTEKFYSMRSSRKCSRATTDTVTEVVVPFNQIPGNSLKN
panel of 68 receptors (Homo sapiens, UniProt Q9Y5N1), sequence (Q9Y5N1 whole entry): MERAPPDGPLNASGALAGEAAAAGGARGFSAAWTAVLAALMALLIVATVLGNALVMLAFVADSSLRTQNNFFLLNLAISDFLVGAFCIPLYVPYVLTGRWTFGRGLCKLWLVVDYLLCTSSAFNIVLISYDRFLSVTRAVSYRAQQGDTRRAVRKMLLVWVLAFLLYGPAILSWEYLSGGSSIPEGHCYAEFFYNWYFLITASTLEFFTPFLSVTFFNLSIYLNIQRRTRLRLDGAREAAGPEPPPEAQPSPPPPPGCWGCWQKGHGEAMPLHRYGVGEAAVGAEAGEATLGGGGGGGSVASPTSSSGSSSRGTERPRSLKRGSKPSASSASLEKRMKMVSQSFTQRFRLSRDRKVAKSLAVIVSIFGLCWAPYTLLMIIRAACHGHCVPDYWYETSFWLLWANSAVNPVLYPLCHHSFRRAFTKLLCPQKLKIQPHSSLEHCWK
panel of 68 receptors (Homo sapiens, UniProt P46663), sequence (P46663 whole entry): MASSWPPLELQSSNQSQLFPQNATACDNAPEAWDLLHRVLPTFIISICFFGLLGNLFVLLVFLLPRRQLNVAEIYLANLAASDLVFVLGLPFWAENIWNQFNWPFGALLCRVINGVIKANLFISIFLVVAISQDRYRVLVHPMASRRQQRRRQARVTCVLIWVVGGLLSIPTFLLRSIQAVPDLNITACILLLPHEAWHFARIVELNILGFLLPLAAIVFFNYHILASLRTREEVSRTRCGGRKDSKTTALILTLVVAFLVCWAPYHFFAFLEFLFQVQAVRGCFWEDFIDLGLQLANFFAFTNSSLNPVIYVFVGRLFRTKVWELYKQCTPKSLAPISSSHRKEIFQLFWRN

On to `CCOc1ccc(-c2cc(NC(=O)c3c(F)cccc3F)c(C(=O)O)s2)cc1` [ML317, 3-(2,6-difluorobenzamido)-5-(4-ethoxyphenyl)thiophene-2-carboxylic acid], for which, in the series with K1 antigen of UTI89, the “Whole-cell anti-K1 dot blot reactivity” value is given as “reduces K1 reactive material to levels comparable to those of genetic capsule mutants”. Also, the “Plasma Protein Binding (% Bound)” value was found to be 98.97 % Bound in [1] (1 μM) and 99.31 % Bound in series [1] (10 μM). Besides, the “Effect on in vitro growth and viability of UPEC” value in the series on UPEC (absence of immune factors) was “no effect”. For the same compound, the “Effect on bacterial cell viability” value in the series with UPEC (highest tested concentration (100 μM)) is reported as “no effect”. Also, the solubility in series [2] (Luria-Bertani broth (primary assay media), plasma or biological fluid, Luria-Bertani broth, read-out: Assay Media Solubility) was 68 µg/mL and 169 µM; in [2] (phosphate buffered saline (PBS), 23 °C, pH 7.4, aqueous buffer, 1x PBS, pH 7.4, room temperature, read-out: Aqueous Solubility), 92.6 µg/mL and 230 µM.

Regarding `CCOc1ccc(-c2cc(NC(=O)c3c(F)cccc3F)c(C(=O)O)s2)cc1` [KUC107784N-02], the “% Inh.” value is 0% at panel of 68 receptors [3]; 0% at panel of 68 receptors [4]; 2% on panel of 68 receptors [5]; 29% on panel of 68 receptors [6]; 2% on panel of 68 receptors [7]; 5% at panel of 68 receptors [8]. The “% Inh.” value on panel of 68 receptors [9] is given as 3%; at panel of 68 receptors [10], −1%; at panel of 68 receptors [11] it was 4%; at panel of 68 receptors [12], 2%; on panel of 68 receptors [13] it was −5%; at panel of 68 receptors [14], 4%. In addition, the “% Inh.” value at panel of 68 receptors [15] is 8%; on panel of 68 receptors [16], −2%; on panel of 68 receptors [17] it was 14%; on panel of 68 receptors [18], −11%; on panel of 68 receptors [19], 5%; at panel of 68 receptors [20], 13%.

What is called solubility is the concentration that dissolves in the medium under given conditions.
